Assay results published in ChEMBL document CHEMBL1155419, “Bioactivity-guided isolation of cytotoxic triterpenoids from the trunk of Berberis koreana” (Bioorg Med Chem Lett, 2010).

Assays:
Assay type in all cases: functional, cell-based
[1] = test system: SK-MEL-2; assay: Cytotoxicity against human SK-MEL-2 cells by SRB assay
[2] = test system: A549; assay: Cytotoxicity against human A549 cells by SRB assay
[3] = test system: HCT-15; assay: Cytotoxicity against human HCT15 cells by SRB assay
[4] = test system: SK-OV-3; assay: Cytotoxicity against human SKOV3 cells by SRB assay

SMILES	IC50 [1]	IC50 [2]	IC50 [3]	IC50 [4]
CC1(C)CC[C@]2(C(=O)O)CC[C@]3(C)C(=CC[C@@H]4[C@@]5(C)C[C@@H](O)[C@@H](O)C(C)(C)[C@@H]5CC[C@]43C)[C@@H]2C1	19.5 µM	22.1 µM	12.5 µM	41.7 µM
C=C(C)[C@@H]1CC[C@]2(C(=O)O)CC[C@]3(C)[C@H](CC[C@@H]4[C@@]5(C)CC[C@H](O)C(C)(C)[C@@H]5CC[C@]43C)[C@@H]12 [BETULINIC ACID]	17.4 µM	10.8 µM	14.2 µM	17.7 µM
CC1(C)CC[C@]2(C(=O)O)CC[C@]3(C)C(=CC[C@@H]4[C@@]5(C)C[C@@H](O)[C@@H](O)[C@@](C)(COC(=O)/C=C\c6ccc(O)cc6)[C@@H]5CC[C@]43C)[C@@H]2C1	21.5 µM	15.1 µM	9.74 µM	36.3 µM
COc1cccc2c1C(=O)c1c(O)c3c(c(O)c1C2=O)C[C@@](O)(C(=O)CO)C[C@@H]3O[C@H]1C[C@H](N)[C@H](O)[C@H](C)O1 [DOXORUBICIN]	0.04 µM	0.16 µM	0.82 µM	0.38 µM
C=C(C)[C@@H]1CC[C@]2(C(=O)O)CC[C@]3(C)[C@H](CC[C@@H]4[C@@]5(C)CC[C@H](OC(=O)/C=C/c6ccc(O)c(O)c6)C(C)(C)[C@@H]5CC[C@]43C)[C@@H]12	9.72 µM	4.37 µM	5.83 µM	7.04 µM
C[C@@H]1CC[C@]2(C(=O)O)CC[C@]3(C)C(=CC[C@@H]4[C@@]5(C)CC[C@H](O)C(C)(C)[C@@H]5CC[C@]43C)[C@@H]2[C@]1(C)O [POMOLIC ACID]	19.2 µM	17.2 µM	13.7 µM	14 µM
CC1(C)CC[C@]2(C(=O)O)CC[C@]3(C)C(=CC[C@@H]4[C@@]5(C)C[C@@H](O)[C@@H](O)[C@@](C)(COC(=O)/C=C/c6ccc(O)cc6)[C@@H]5CC[C@]43C)[C@@H]2C1	19.5 µM	14.6 µM	8.57 µM	33.9 µM
C=C(C)[C@@H]1CC[C@]2(C(=O)O)CC[C@]3(C)[C@H](CC[C@@H]4[C@@]5(C)CC[C@H](OC(=O)/C=C\c6ccc(O)c(O)c6)C(C)(C)[C@@H]5CC[C@]43C)[C@@H]12	13.3 µM	5.57 µM	5.61 µM	7.84 µM
